Measurements published in patent publication US8729269B2, “Substituted piperidino phenyloxazolidinones having antimicrobial activity with improved in vivo efficacy” (Wockhardt Limited, priority 2003, dated 2014).
Values after ≈ are worked out from the molar mass of the structure shown.

Tests used:
[1] = tested on: methicillin resistant Staphylococcus aureus strain MRSA 32; assay: Murine Assay Procedure (in vivo efficacy, MRSA 32 infection); conditions: swiss mice infected intraperitoneally with MRSA 32, oral gavage 1 h after infection, repeat dose 3 hrs later, percentage survival on Day 7
Description: Oxazolidinone new chemical entities (NCEs) were evaluated for their in vivo efficacy in a murine infection caused by multi-drug resistant, methicillin resistant Staphylococcus aureus strain, referred to as MRSA 32, a clinical isolate obtained from a hospitalized patient. The procedure used for the murine assay is as follows:
Four weeks old swiss mice of 18-22 gm body weight were infected with MRSA 32 strain suspended in 5% Hog gastric mucin. The infecting dose of bacteria was set at 1-2×10^8 CFU/animal. The infecting dose was administered in 0.5 ml volume injected into peritonial cavity of mice. The treatment with oxazolidinone NCEs was started one hour after infection by administering 100-200 μl of the suspensions of oxazolidinone compounds in 5% Tween 80 by oral gavage. A repeat dose was similarly administered 3 hrs later. Each oxazolidinone NCE was tested at 2-3 different dosages in the range of 2.5 mg/kg to 20 mg/kg. In each dose group 6 mice were included. As an infection control group 12 mice were infected with MRSA 32 strain without giving any treatment. For compounds affording protection of MRSA infected mice, ED50 dosages were calculated on the basis of percentage survival on Day 7 after infection.

[2] = tested on: Vancomycin resistant enterococci 303 (VRE 303); assay: Minimum Inhibitory Concentration (MIC) determination, agar dilution; format: cell-based; conditions: Enterococcus, Mueller Hinton agar, 24 hrs at 35° C.
Description: (§1) Overnight grown cultures of Methicilin resistant Staphylococcus aureus 32 (MRSA 32), Methicilin resistant Staphylococcus epidermidis 118 (MRSE 118), Vancomycin resistant enterococci 303 (VRE 303) in Tryptic Soya broth were diluted in Mueller Hinton Broth to give optical density matching with MacFarland tube 0.5 standard. Cultures were further diluted 1:10 in Mueller Hinton broth. Using Denley's multipoint inoculator, 10^4 cells were deposited on Mueller Hinton agar (Difco) containing range of 2 fold dilutions of test compounds. These plates were incubated for 24 hrs at 35° C. and MIC results recorded. MIC is defined as minimum drug concentration that inhibits test organisms. For determining MIC of test compounds against Streptococcus pneumoniae 49619 (SPN 49619) and Streptococcus pyogenes 801 (SPY 801), Mueller Hinton agar containing 5% sheep blood was employed.

[3] = tested on: Methicilin resistant Staphylococcus aureus 32 (MRSA 32); assay: as above; format: cell-based; conditions: Mueller Hinton agar, 24 hrs at 35° C.
Description: as §1

[4] = tested on: Methicilin resistant Staphylococcus epidermidis 118 (MRSE 118); assay: as above; format: cell-based; conditions: Mueller Hinton agar, 24 hrs at 35° C.
Description: as §1

[5] = tested on: Streptococcus pyogenes 801 (SPY 801); assay: Minimum Inhibitory Concentration (MIC) determination, agar with 5% sheep blood; format: cell-based; conditions: Mueller Hinton agar containing 5% sheep blood
Description: as §1

[6] = tested on: Streptococcus pneumoniae 49619 (SPN 49619); assay: as above; format: cell-based; conditions: Mueller Hinton agar containing 5% sheep blood
Description: as §1

COCC1(F)CCN(c2ccc(N3C[C@H](CNC(C)=O)OC3=O)cc2F)CC1 [Example 10, (S)—N-{3-[4-(4-Fluoro-4-methoxymethylpiperidin-1-yl)-3-fluorophenyl]-2-oxo-oxazolidin-5-ylmethyl}-acetamide]
ED50 [1]: 5 mg/kg
MIC [2]: 1 µg/mL (≈ 2.52 µM)
MIC [3]: 2 µg/mL (≈ 5.03 µM)
MIC [4]: 1 µg/mL (≈ 2.52 µM)
MIC [5]: 2 µg/mL (≈ 5.03 µM)
MIC [6]: 2 µg/mL (≈ 5.03 µM)

CS(=O)(=O)OC[C@H]1CN(c2ccc(N3CCC4(CC3)COCO4)c(F)c2)C(=O)O1 [Example 129, (R)—N-{3-[4-(1,3-dioxa-8-aza-spiro[4.5]dec-8-yl)-3-fluorophenyl]-2-oxo-oxazolidin-5-ylmethyl}-methanesulfonate]
ED50 [1]: 5 mg/kg
MIC [2]: 16 µg/mL (≈ 37.2 µM)
MIC [3]: 8 µg/mL (≈ 18.6 µM)
MIC [4]: 4 µg/mL (≈ 9.29 µM)
MIC [5]: 8 µg/mL (≈ 18.6 µM)
MIC [6]: 8 µg/mL (≈ 18.6 µM)

CC(=O)NC[C@H]1CN(c2ccc(N3CCC(O)(CN=[N+]=[N-])CC3)c(F)c2)C(=O)O1 [Example 25, (S)—N-{3-[4-(4-Azidomethyl-4-hydroxypiperidin-1-yl)-3-fluorophenyl]-2-oxo-oxazolidin-5-ylmethyl}-acetamide]
ED50 [1]: 5 mg/kg
MIC [2]: 2 µg/mL (≈ 4.92 µM)
MIC [3]: 4 µg/mL (≈ 9.84 µM)
MIC [4]: 1 µg/mL (≈ 2.46 µM)
MIC [5]: 2 µg/mL (≈ 4.92 µM)
MIC [6]: 2 µg/mL (≈ 4.92 µM)

CCOCC1(F)CCN(c2ccc(N3C[C@H](CNC(C)=O)OC3=O)cc2F)CC1 [Example 11, (S)—N-{3-[4-(4-Fluoro-4-ethoxymethylpiperidin-1-yl)-3-fluorophenyl]-2-oxo-oxazolidin-5-ylmethyl}-acetamide]
ED50 [1]: 10 mg/kg
MIC [2]: 4 µg/mL (≈ 9.72 µM)
MIC [3]: 1 µg/mL (≈ 2.43 µM)
MIC [4]: 0.5 µg/mL (≈ 1.22 µM)
MIC [5]: 4 µg/mL (≈ 9.72 µM)
MIC [6]: 2 µg/mL (≈ 4.86 µM)

CC(=O)NC[C@H]1CN(c2ccc(N3CCC4(OCCO4)C(F)C3)c(F)c2)C(=O)O1 (stereo partly drawn) [Example 133, (S)—N-{3-[4-(1,4-dioxa-6-fluoro-8-aza-spiro[4.5]dec-8-yl)-3-fluorophenyl]-2-oxo-oxazolidin-5-ylmethyl}-acetamide]
ED50 [1]: 5 mg/kg
MIC [2]: 4 µg/mL (≈ 9.72 µM)
MIC [3]: 4 µg/mL (≈ 9.72 µM)
MIC [4]: 2 µg/mL (≈ 4.86 µM)
MIC [5]: 2 µg/mL (≈ 4.86 µM)
MIC [6]: 2 µg/mL (≈ 4.86 µM)

CC(=O)NC[C@H]1CN(c2ccc(N3CCC(F)(F)CC3)c(F)c2)C(=O)O1 [Example 16, (S)—N-{3-[4-(4,4-Difluoropiperidin-1-yl)-3-fluorophenyl]-2-oxo-oxazolidin-5-ylmethyl}-acetamide]
ED50 [1]: 5 mg/kg
MIC [2]: 2 µg/mL (≈ 5.39 µM)
MIC [3]: 2 µg/mL (≈ 5.39 µM)
MIC [4]: 1 µg/mL (≈ 2.69 µM)
MIC [5]: 2 µg/mL (≈ 5.39 µM)
MIC [6]: 2 µg/mL (≈ 5.39 µM)

CS(=O)(=O)OC[C@H]1CN(c2cc(F)c(N3CCC(=O)CC3)c(F)c2)C(=O)O1 [Example 169, (R)—N-{3-[4-(4-oxo-piperidin-1-yl)-3,5-difluorophenyl]-2-oxo-oxazolidin-5-ylmethyl}-methanesulfonate]
ED50 [1]: 10 mg/kg
MIC [2]: 1 µg/mL (≈ 2.47 µM)
MIC [3]: 0.5 µg/mL (≈ 1.24 µM)
MIC [4]: 0.25 µg/mL (≈ 0.618 µM)
MIC [5]: 2 µg/mL (≈ 4.95 µM)
MIC [6]: 0.5 µg/mL (≈ 1.24 µM)

CS(=O)(=O)OC[C@H]1CN(c2ccc(N3CCC(=O)CC3)c(F)c2)C(=O)O1 [Example 168, (R)—N-{3-[4-(4-oxo-piperidin-1-yl)-3-fluorophenyl]-2-oxo-oxazolidin-5-ylmethyl}-methanesulfonate]
ED50 [1]: 10 mg/kg
MIC [2]: 4 µg/mL (≈ 10.4 µM)
MIC [3]: 4 µg/mL (≈ 10.4 µM)
MIC [4]: 2 µg/mL (≈ 5.18 µM)
MIC [5]: 4 µg/mL (≈ 10.4 µM)
MIC [6]: 4 µg/mL (≈ 10.4 µM)

CC(=O)NC[C@H]1CN(c2ccc(N3CCC4(CC3)COCCO4)c(F)c2)C(=O)O1 [Example 160, (S)—N-{3-[4-(1,4-dioxa-9-aza-spiro[5.5]undec-9-yl)-3-fluorophenyl]-2-oxo-oxazolidin-5-ylmethyl}-acetamide]
ED50 [1]: 10 mg/kg
MIC [2]: 8 µg/mL (≈ 19.6 µM)
MIC [3]: 4 µg/mL (≈ 9.82 µM)
MIC [4]: 1 µg/mL (≈ 2.45 µM)
MIC [5]: 4 µg/mL (≈ 9.82 µM)
MIC [6]: 4 µg/mL (≈ 9.82 µM)

CS(=O)(=O)OC[C@H]1CN(c2ccc(N3CCC(O)CC3)c(F)c2)C(=O)O1 [Example 172, (R)—N-{3-[4-(4-hydroxy-piperidin-1-yl)-3-fluorophenyl]-2-oxo-oxazolidin-5-ylmethyl}-methanesulfonate]
ED50 [1]: 10 mg/kg
MIC [2]: 16 µg/mL (≈ 41.2 µM)
MIC [3]: 8 µg/mL (≈ 20.6 µM)
MIC [4]: 8 µg/mL (≈ 20.6 µM)
MIC [5]: > 8 µg/mL
MIC [6]: > 8 µg/mL

CC(=O)NC[C@H]1CN(c2ccc(N3CCC(F)(CNS(C)(=O)=O)CC3)c(F)c2)C(=O)O1 [Example 7, (S)—N-{3-[4-(4-Fluoro-4-methanesulfonamidomethylpiperidin-1-yl)-3-fluorophenyl]-2-oxo-oxazolidin-5-ylmethyl}-acetamide]
ED50 [1]: 5 mg/kg
MIC [2]: 2 µg/mL (≈ 4.34 µM)
MIC [3]: 1 µg/mL (≈ 2.17 µM)
MIC [4]: 0.5 µg/mL (≈ 1.09 µM)
MIC [5]: 1 µg/mL (≈ 2.17 µM)
MIC [6]: 1 µg/mL (≈ 2.17 µM)

CC(=O)NC[C@H]1CN(c2ccc(N3CCC(O)(CC#N)CC3)c(F)c2)C(=O)O1 [Example 21, (S)—N-{3-[4-(4-Cyanomethyl-4-hydroxypiperidin-1-yl)-3-fluorophenyl]-2-oxo-oxazolidin-5-ylmethyl}-acetamide]
ED50 [1]: 2.5 mg/kg
MIC [2]: 4 µg/mL (≈ 10.2 µM)
MIC [3]: 4 µg/mL (≈ 10.2 µM)
MIC [4]: 1 µg/mL (≈ 2.56 µM)
MIC [5]: 1 µg/mL (≈ 2.56 µM)
MIC [6]: 1 µg/mL (≈ 2.56 µM)

CC(=O)NC[C@H]1CN(c2cc(F)c(N3CCC(O)(CN=[N+]=[N-])CC3)c(F)c2)C(=O)O1 [Example 186, (S)—N-{3-[4-(4-Azidomethyl-4-hydroxypiperidin-1-yl)-3,5-difluorophenyl]-2-oxo-oxazolidin-5-ylmethyl}-acetamide]
ED50 [1]: 5 mg/kg
MIC [2]: 2 µg/mL (≈ 4.71 µM)
MIC [3]: 2 µg/mL (≈ 4.71 µM)
MIC [4]: 1 µg/mL (≈ 2.36 µM)
MIC [5]: 1 µg/mL (≈ 2.36 µM)
MIC [6]: 1 µg/mL (≈ 2.36 µM)

CC(=O)NC[C@H]1CN(c2ccc(N3CCC4(CC3)NCC[S+]4[O-])c(F)c2)C(=O)O1 (stereo partly drawn) [Example 112, (S)—N-{3-[4-(4,8-diaza-1-sulfinyl-spiro[4.5]dec-8-yl)-3-fluorophenyl]-2-oxo-oxazolidin-5-ylmethyl}-acetamide]
ED50 [1]: 10 mg/kg
MIC [2]: 2 µg/mL (≈ 4.71 µM)
MIC [3]: 4 µg/mL (≈ 9.42 µM)
MIC [4]: 1 µg/mL (≈ 2.36 µM)
MIC [5]: 2 µg/mL (≈ 4.71 µM)
MIC [6]: 2 µg/mL (≈ 4.71 µM)

CC(=O)NC[C@H]1CN(c2ccc(N3CCC4(CC3)CC4C#N)c(F)c2)C(=O)O1 (mixture of isomers) [Example 97, (1RS,5S)—N-{3-[4-(1-cyano-6-aza-spiro[2.5]oct-6-yl)-3-fluorophenyl]-2-oxo-oxazolidin-5-ylmethyl}-acetamide]
ED50 [1]: 5 mg/kg
MIC [2]: 2 µg/mL
MIC [3]: 4 µg/mL
MIC [4]: 1 µg/mL
MIC [5]: 2 µg/mL
MIC [6]: 2 µg/mL

CC(=O)NC[C@H]1CN(c2cc(F)c(N3CCC4(CC3)OCCO4)c(F)c2)C(=O)O1 [Example 130, (S)—N-{3-[4-(1,4-dioxa-8-aza-spiro[4.5]dec-8-yl)-3,5-difluorophenyl]-2-oxo-oxazolidin-5-ylmethyl}-acetamide]
ED50 [1]: 5 mg/kg
MIC [2]: 4 µg/mL (≈ 9.72 µM)
MIC [3]: 4 µg/mL (≈ 9.72 µM)
MIC [4]: 2 µg/mL (≈ 4.86 µM)
MIC [5]: 2 µg/mL (≈ 4.86 µM)
MIC [6]: 2 µg/mL (≈ 4.86 µM)

CC(=O)NC[C@H]1CN(c2ccc(N3CCC(F)(CI)CC3)c(F)c2)C(=O)O1 [Example 15, (S)—N-{3-[4-(4-Fluoro-4-iodomethylpiperidin-1-yl)-3-fluorophenyl]-2-oxo-oxazolidin-5-ylmethyl}-acetamide]
ED50 [1]: 10 mg/kg
MIC [2]: 2 µg/mL (≈ 4.05 µM)
MIC [3]: 1 µg/mL (≈ 2.03 µM)
MIC [4]: 1 µg/mL (≈ 2.03 µM)
MIC [5]: 1 µg/mL (≈ 2.03 µM)
MIC [6]: 1 µg/mL (≈ 2.03 µM)
